In patent US20130203805A1, “Methods for treating anemia using inhibitors of hypoxia-inducible factor (HIF) hydroxylase” (FIBROGEN, INC., priority 2001, published 2013):

What was measured:
erythropoietin (EPO) = assay: Serum/plasma erythropoietin level by immunoassay (Example 2, Experiment I); format: in vivo, Swiss Webster male mice; details: mice; 200 mg/kg/day oral gavage 2.5 days; 4 h after final dose; relative to untreated controls; FIG. 2B
Protocol: (§1) Twelve Swiss Webster male mice (30-32 g) were obtained from Simonsen, Inc. (Gilroy Calif.), and treated by oral gavage two times per day for 2.5 days (5 doses) with a 4 ml/kg volume of either 0.5% carboxymethyl cellulose (CMC; Sigma-Aldrich, St. Louis Mo.) (0 mg/kg/day) or 2.5% Compound C (25 mg/ml in 0.5% CMC) (200 mg/kg/day). Four hours after the final dose, animals were anesthetized with isoflurane and two blood samples were collected from the abdominal vein. One blood sample was collected into a MICROTAINER serum separator tube (Becton-Dickinson, Franklin Lakes N.J.), and incubated at room temperature for 30 minutes, centrifuged at 8,000 rpm at 4° C. for 10 minutes. The serum fraction was then processed and analyzed for erythropoietin (EPO) expression using a QUANTIKINE immunoassay (R&D Systems) according to the manufacturer's instructions. The second blood sample was collected into a MICROTAINER EDTA-2K tube (Becton-Dickinson) for hematocrit analysis. Hematocrit was measured by drawing EDTA-blood into a 75 mm×1.1-12 mm I.D. capillary tube (Chase Scientific Glass, Inc., Rockwood Tenn.) to approximately ¾ length. One end of the tube was sealed with CRITOSEAL sealant (Sherwood Medical Company) and the tube was centrifuged in a J-503M MICROHEMATOCRIT centrifuge (Jorgensen Laboratories, Inc., Loveland Colo.) at 12,000 rpm for 5 minutes. Hematocrit was read against a reader card. […]

[1] = Hematocrit (Example 2, Experiment I); format: in vivo, Swiss Webster male mice; details: mice; 200 mg/kg/day oral gavage 2.5 days; 4 h after final dose; relative to untreated controls; FIG. 2C
Protocol: as §1

[2] = format: in vivo, Sprague Dawley male rats
Protocol: The ability of a compound of the invention to treat anemia associated with post-ischemic acute renal failure was assayed using a procedure described by Vaziri et al. (1994, Am J Physiol 266(3 Pt 2):[…]-6.) Fifteen Sprague Dawley male rats (280-300 g) were obtained from Charles River Laboratories. On day 0, rats were treated by intraperitoneal injection with a single dose of saline (control; n=3) at 8 ml/kg, or cisplatin (CP; Bedford Laboratories, Bedford Ohio) at either 7 mg/kg (7 ml/kg; n=6) or 10 mg/kg (10 ml/kg; n=6). Blood samples (0.2 ml) were collected on days 5, 9, and 16 as follows. […] Blood samples were processed for hematocrit as described above to determine the degree of anemia produced in each animal. […] Blood samples (0.5 ml) were collected as described above immediately prior to treatment and 4 days after treatment initiation. Blood samples were analyzed for CBC and reticulocyte counts as described above. On day 9 after initiation of oral treatment, a blood sample (0.1 ml) was collected and processed for hematocrit as described above.

Compound: O=C(O)CNC(=O)c1nc(Cl)c2ccccc2c1O [Compound C, [(1-chloro-4-hydroxy-isoquinoline-3-carbonyl)-amino]-acetic acid]
- erythropoietin plasma level (erythropoietin (EPO)): significant increase
- hematocrit [1]: significantly increased
- hematocrit levels versus normal control ([2]; rats initially exposed to 7 mg/kg CP, 2 ml/kg of 2.5% compound C oral once daily 5 days, day 9, FIG. 5A): at or above normal control values
- number of circulating reticulocytes ([2]; rats, CP-treated, 2 ml/kg of 2.5% compound C oral once daily 5 days, FIG. 5B): also increased
- hematocrit versus non-treated counterparts ([2]; rats, CP-treated, 2 ml/kg of 2.5% compound C oral once daily 5 days, day 9 post-treatment, FIG. 5A): significantly higher
- hematocrit in CP-treated animals ([2]; rats, 2 ml/kg of 2.5% compound C oral once daily 5 days from day 19, 4 days after initiating treatment, FIG. 5A): increased
